Assay results from ChEMBL document CHEMBL4507296 (2021).

Key:
[1] = target: D(3) dopamine receptor (Homo sapiens) (UniProt P35462); settings: Compound concentration 10.0 uM
[2] = target: Serine/threonine-protein kinase Sgk1 (Homo sapiens) (UniProt O00141); settings: Compound concentration 1000.0 nM
[3] = target: AP2-associated protein kinase 1 (Homo sapiens) (UniProt Q2M2I8); settings: Compound concentration 1000.0 nM
[4] = system: eIF-2-alpha kinase GCN2 (Homo sapiens), Q9P2K8 [S808G]; settings: Compound concentration 1000.0 nM
[5] = target: Bone morphogenetic protein receptor type-2 (Homo sapiens) (UniProt Q13873); settings: Compound concentration 1000.0 nM
[6] = target: Dual specificity protein kinase CLK1 (Homo sapiens) (UniProt P49759); settings: Compound concentration 1000.0 nM
[7] = target: 5-hydroxytryptamine receptor 2B (Homo sapiens) (UniProt P41595); settings: Compound concentration 10.0 uM
[8] = target: Cyclin-dependent kinase 8 (Homo sapiens) (UniProt P49336); settings: Compound concentration 1000.0 nM
[9] = target: Testis-specific serine/threonine-protein kinase 3 (Homo sapiens) (UniProt Q96PN8); settings: Compound concentration 1000.0 nM
[10] = target: Serine/threonine-protein kinase Nek7 (Homo sapiens) (UniProt Q8TDX7); settings: Compound concentration 1000.0 nM
[11] = target: Tyrosine-protein kinase BTK (Homo sapiens) (UniProt Q06187); settings: Compound concentration 1000.0 nM
[12] = target: Citron Rho-interacting kinase (Homo sapiens) (UniProt O14578); settings: Compound concentration 1000.0 nM
[13] = target: Serine/threonine-protein kinase 25 (Homo sapiens) (UniProt O00506); settings: Compound concentration 1000.0 nM
[14] = system: Tyrosine-protein kinase ABL1 (Homo sapiens), P00519 [T315I]; settings: Compound concentration 1000.0 nM
[15] = target: Dual specificity mitogen-activated protein kinase kinase 7 (Homo sapiens) (UniProt O14733); settings: Compound concentration 1000.0 nM
[16] = target: Phosphatidylinositol 5-phosphate 4-kinase type-2 gamma (Homo sapiens) (UniProt Q8TBX8); settings: Compound concentration 1000.0 nM
[17] = target: Serine/threonine-protein kinase TBK1 (Homo sapiens) (UniProt Q9UHD2); settings: Compound concentration 1000.0 nM
[18] = target: Rho-associated protein kinase 1 (Homo sapiens) (UniProt Q13464); settings: Compound concentration 1000.0 nM
[19] = target: Homeodomain-interacting protein kinase 4 (Homo sapiens) (UniProt Q8NE63); settings: Compound concentration 1000.0 nM
[20] = target: Serine/threonine-protein kinase PLK4 (Homo sapiens) (UniProt O00444); settings: Compound concentration 1000.0 nM
[21] = target: Receptor tyrosine-protein kinase erbB-2 (Homo sapiens) (UniProt P04626); settings: Compound concentration 1000.0 nM
[22] = target: Ephrin type-A receptor 2 (Homo sapiens) (UniProt P29317); settings: Compound concentration 1000.0 nM
[23] = target: Hormonally up-regulated neu tumor-associated kinase (Homo sapiens) (UniProt P57058); settings: Compound concentration 1000.0 nM
[24] = target: Vascular endothelial growth factor receptor 2 (Homo sapiens) (UniProt P35968); settings: Compound concentration 1000.0 nM
[25] = target: Ephrin type-A receptor 6 (Homo sapiens) (UniProt Q9UF33); settings: Compound concentration 1000.0 nM
[26] = target: Beta-3 adrenergic receptor (Homo sapiens) (UniProt P13945); settings: Compound concentration 10.0 uM
[27] = target: Serine/threonine-protein kinase PAK 2 (Homo sapiens) (UniProt Q13177); settings: Compound concentration 1000.0 nM
[28] = target: Serine/threonine-protein kinase TAO1 (Homo sapiens) (UniProt Q7L7X3); settings: Compound concentration 1000.0 nM
[29] = target: Calcium/calmodulin-dependent protein kinase type 1G (Homo sapiens) (UniProt Q96NX5); settings: Compound concentration 1000.0 nM
[30] = system: Epidermal growth factor receptor (Homo sapiens), P00533 [UNDEFINED MUTATION]; settings: Compound concentration 1000.0 nM
[31] = target: Cyclin-dependent kinase 19 (Homo sapiens) (UniProt Q9BWU1); settings: Compound concentration 1000.0 nM
[32] = target: Casein kinase II subunit alpha (Homo sapiens) (UniProt P68400); settings: Compound concentration 1000.0 nM
[33] = target: Activin receptor type-2B (Homo sapiens) (UniProt Q13705); settings: Compound concentration 1000.0 nM
[34] = target: Protein kinase C theta type (Homo sapiens) (UniProt Q04759); settings: Compound concentration 1000.0 nM
[35] = system: Proto-oncogene tyrosine-protein kinase receptor Ret (Homo sapiens), P07949 [M918T]; settings: Compound concentration 1000.0 nM
[36] = system: Receptor-type tyrosine-protein kinase FLT3 (Homo sapiens), P36888 [N841I]; settings: Compound concentration 1000.0 nM
[37] = system: Tyrosine-protein kinase ABL1 (Homo sapiens), P00519 [F317I]; settings: Compound concentration 1000.0 nM
[38] = target: Phosphatidylinositol 4-phosphate 3-kinase C2 domain-containing subunit beta (Homo sapiens) (UniProt O00750); settings: Compound concentration 1000.0 nM
[39] = target: RAC-beta serine/threonine-protein kinase (Homo sapiens) (UniProt P31751); settings: Compound concentration 1000.0 nM
[40] = target: Serine/threonine-protein kinase/endoribonuclease IRE1 (Homo sapiens) (UniProt O75460); settings: Compound concentration 1000.0 nM
[41] = target: Phosphatidylinositol 3-kinase C2 domain-containing subunit gamma (Homo sapiens) (UniProt O75747); settings: Compound concentration 1000.0 nM
[42] = target: Macrophage colony-stimulating factor 1 receptor (Homo sapiens) (UniProt P07333); settings: Compound concentration 1000.0 nM
[43] = target: Serine/threonine-protein kinase 33 (Homo sapiens) (UniProt Q9BYT3); settings: Compound concentration 1000.0 nM
[44] = target: Tyrosine-protein kinase Fes/Fps (Homo sapiens) (UniProt P07332); settings: Compound concentration 1000.0 nM
[45] = target: Serine/threonine-protein kinase MRCK alpha (Homo sapiens) (UniProt Q5VT25); settings: Compound concentration 1000.0 nM

Serine/threonine-protein kinase Sgk1 (Homo sapiens), sequence (O00141 whole entry): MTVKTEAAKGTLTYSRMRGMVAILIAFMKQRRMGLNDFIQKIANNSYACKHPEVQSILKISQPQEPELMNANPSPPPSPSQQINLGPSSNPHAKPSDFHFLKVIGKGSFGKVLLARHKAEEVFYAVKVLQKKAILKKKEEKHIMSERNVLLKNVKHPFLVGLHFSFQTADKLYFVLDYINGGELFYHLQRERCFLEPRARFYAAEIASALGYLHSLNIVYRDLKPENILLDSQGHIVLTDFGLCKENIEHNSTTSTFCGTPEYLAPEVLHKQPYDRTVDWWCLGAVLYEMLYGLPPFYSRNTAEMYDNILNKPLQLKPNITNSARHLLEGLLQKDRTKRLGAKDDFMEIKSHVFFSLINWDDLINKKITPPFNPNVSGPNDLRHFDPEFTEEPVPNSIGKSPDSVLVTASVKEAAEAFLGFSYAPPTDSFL
Serine/threonine-protein kinase/endoribonuclease IRE1 (Homo sapiens), sequence (O75460 19-977 limits assumed): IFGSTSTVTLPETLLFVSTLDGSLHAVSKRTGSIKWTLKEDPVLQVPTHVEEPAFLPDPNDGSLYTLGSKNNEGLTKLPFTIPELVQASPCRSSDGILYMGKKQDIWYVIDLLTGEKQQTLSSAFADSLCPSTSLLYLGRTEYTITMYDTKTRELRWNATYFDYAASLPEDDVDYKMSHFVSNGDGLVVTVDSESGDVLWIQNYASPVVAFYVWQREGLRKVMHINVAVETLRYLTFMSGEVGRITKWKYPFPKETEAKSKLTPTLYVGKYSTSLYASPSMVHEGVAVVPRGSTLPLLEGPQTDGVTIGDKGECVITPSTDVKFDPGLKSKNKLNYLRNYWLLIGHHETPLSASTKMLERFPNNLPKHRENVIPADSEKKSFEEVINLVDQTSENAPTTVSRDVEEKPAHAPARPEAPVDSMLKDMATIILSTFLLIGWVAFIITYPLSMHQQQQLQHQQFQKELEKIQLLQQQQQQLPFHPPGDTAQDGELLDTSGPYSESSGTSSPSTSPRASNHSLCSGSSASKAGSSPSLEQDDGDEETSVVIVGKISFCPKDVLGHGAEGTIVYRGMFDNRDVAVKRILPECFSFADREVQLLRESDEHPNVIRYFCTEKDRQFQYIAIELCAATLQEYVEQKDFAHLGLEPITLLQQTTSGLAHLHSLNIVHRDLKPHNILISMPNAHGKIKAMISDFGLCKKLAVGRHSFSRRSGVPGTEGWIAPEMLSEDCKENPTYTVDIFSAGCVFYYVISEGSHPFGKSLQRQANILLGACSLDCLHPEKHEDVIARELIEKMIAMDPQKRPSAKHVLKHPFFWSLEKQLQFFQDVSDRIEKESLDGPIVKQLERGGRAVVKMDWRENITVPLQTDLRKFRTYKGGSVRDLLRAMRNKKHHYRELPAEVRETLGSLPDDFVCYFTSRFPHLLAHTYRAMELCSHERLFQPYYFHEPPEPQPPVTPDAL
Serine/threonine-protein kinase PLK4 (Homo sapiens), sequence (O00444 whole entry): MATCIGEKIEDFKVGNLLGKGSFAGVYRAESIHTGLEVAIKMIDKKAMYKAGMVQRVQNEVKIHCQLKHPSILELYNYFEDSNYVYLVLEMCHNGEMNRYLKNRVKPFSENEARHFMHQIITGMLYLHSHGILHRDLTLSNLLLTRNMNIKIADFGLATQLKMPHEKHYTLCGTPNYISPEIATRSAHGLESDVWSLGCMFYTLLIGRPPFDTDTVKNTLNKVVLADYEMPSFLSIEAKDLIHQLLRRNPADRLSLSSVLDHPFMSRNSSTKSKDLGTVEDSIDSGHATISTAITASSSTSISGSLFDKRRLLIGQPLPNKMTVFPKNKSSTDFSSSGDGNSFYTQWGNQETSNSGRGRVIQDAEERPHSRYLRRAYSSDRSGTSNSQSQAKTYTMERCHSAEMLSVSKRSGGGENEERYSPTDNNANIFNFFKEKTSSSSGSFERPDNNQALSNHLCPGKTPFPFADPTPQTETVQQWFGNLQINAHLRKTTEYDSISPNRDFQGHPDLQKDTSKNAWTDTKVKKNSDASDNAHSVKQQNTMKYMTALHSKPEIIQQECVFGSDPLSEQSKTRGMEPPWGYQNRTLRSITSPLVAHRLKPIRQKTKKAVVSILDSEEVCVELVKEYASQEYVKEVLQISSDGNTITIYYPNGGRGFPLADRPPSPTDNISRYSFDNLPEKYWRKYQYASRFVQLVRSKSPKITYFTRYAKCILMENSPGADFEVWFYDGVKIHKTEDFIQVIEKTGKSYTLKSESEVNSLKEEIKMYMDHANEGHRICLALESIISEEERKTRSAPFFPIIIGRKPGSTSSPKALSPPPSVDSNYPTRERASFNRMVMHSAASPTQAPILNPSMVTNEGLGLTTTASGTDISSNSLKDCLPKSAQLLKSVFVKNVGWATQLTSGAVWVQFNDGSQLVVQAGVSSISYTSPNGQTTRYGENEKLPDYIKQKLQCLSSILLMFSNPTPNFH
Phosphatidylinositol 4-phosphate 3-kinase C2 domain-containing subunit beta (Homo sapiens), sequence (O00750 whole entry, the tested form may be a part): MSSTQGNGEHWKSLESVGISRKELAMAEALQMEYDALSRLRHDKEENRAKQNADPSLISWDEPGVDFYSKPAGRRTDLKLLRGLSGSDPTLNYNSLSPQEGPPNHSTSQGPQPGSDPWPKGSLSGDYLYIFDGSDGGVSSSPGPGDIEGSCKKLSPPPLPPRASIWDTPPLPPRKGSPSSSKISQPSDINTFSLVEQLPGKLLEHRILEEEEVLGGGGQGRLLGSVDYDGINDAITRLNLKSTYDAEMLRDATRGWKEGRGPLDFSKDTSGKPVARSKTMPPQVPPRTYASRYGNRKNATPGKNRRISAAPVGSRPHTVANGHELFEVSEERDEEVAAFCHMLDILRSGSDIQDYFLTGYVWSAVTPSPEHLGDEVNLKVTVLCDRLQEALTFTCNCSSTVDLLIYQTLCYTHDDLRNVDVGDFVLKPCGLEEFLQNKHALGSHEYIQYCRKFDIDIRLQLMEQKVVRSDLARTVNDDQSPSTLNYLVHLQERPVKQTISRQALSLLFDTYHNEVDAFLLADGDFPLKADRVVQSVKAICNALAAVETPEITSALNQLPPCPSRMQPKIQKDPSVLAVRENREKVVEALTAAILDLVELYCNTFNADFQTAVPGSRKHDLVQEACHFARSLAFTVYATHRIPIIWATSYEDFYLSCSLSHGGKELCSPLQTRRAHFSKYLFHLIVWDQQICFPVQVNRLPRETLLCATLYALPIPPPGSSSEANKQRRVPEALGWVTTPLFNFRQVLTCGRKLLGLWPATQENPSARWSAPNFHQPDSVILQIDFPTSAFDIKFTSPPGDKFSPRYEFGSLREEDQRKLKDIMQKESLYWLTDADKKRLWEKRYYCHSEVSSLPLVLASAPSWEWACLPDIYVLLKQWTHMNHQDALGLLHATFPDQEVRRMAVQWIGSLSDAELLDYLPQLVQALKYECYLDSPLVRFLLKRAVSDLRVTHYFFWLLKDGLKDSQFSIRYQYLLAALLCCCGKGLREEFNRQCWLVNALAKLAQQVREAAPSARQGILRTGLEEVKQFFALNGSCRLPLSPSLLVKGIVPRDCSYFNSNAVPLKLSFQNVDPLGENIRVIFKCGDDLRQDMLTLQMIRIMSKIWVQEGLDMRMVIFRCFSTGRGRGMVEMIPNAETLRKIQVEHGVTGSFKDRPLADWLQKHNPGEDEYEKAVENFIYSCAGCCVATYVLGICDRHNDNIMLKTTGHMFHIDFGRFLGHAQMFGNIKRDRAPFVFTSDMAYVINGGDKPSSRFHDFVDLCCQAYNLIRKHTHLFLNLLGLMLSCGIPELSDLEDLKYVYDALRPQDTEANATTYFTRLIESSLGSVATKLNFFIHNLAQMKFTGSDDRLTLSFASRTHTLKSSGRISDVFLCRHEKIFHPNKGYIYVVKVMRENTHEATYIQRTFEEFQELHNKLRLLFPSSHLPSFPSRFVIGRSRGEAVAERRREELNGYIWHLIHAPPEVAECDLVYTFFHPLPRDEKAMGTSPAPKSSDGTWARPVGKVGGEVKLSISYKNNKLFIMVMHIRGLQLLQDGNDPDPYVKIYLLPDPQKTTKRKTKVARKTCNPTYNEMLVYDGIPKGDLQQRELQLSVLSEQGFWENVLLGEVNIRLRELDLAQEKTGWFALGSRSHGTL
Macrophage colony-stimulating factor 1 receptor (Homo sapiens), sequence (P07333 whole entry): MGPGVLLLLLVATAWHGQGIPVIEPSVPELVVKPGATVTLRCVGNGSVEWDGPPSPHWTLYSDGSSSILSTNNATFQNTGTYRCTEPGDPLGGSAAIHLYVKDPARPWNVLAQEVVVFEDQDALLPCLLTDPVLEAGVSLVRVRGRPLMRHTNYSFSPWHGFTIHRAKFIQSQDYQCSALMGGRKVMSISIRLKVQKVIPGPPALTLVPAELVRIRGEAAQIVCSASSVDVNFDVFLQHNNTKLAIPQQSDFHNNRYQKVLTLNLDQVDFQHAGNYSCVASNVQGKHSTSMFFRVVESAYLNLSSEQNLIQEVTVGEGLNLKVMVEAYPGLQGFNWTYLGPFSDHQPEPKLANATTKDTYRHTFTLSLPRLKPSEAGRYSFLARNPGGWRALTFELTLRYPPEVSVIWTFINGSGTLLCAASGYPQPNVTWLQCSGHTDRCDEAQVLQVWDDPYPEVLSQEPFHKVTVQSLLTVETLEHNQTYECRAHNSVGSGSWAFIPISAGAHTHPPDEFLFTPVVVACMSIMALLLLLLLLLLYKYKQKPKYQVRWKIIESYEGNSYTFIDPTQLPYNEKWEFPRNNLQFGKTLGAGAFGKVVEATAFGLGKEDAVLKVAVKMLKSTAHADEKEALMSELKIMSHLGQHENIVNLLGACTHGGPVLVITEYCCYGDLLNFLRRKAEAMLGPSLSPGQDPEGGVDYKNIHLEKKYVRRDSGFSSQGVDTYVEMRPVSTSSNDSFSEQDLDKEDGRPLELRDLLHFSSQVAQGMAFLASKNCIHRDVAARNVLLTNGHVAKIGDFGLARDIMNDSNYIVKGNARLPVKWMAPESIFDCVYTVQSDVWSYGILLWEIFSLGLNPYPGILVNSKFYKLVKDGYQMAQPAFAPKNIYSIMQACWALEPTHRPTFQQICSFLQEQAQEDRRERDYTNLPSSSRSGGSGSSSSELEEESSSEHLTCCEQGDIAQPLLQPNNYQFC

C[C@H](c1ccc(F)cc1)N(Cc1cccc(C(=O)O)c1)C(=O)c1cnc2ccccc2c1 [PF-05105679]
inactive: inhibition [1] -8.16% | residual activity [2] 81% | residual activity [3] 100% | residual activity [4] 100% | residual activity [5] 75% | residual activity [6] 91% | inhibition [7] 0.7% | residual activity [8] 100% | residual activity [9] 64% | residual activity [10] 100% | residual activity [11] 95% | residual activity [12] 100% | residual activity [13] 100% | residual activity [14] 85% | residual activity [15] 100% | residual activity [16] 81% | residual activity [17] 91% | residual activity [18] 100% | residual activity [19] 93% | residual activity [20] 100% | residual activity [21] 100% | residual activity [22] 100% | residual activity [23] 100% | residual activity [24] 100% | residual activity [25] 100% | inhibition [26] 2.81% | residual activity [27] 100% | residual activity [28] 100% | residual activity [29] 100% | residual activity [30] 100% | residual activity [31] 100% | residual activity [32] 100% | residual activity [33] 100% | residual activity [34] 100% | residual activity [35] 86% | residual activity [36] 62% | residual activity [37] 72% | residual activity [38] 90% | residual activity [39] 87% | residual activity [40] 78% | residual activity [41] 100% | residual activity [42] 100% | residual activity [43] 100% | residual activity [44] 100% | residual activity [45] 100%
